Consider 6 compounds from ChEMBL document CHEMBL1131414, “Dual D2-receptor and beta2-adrenoceptor agonists for the treatment of airway diseases. 1. Discovery and biological evaluation of some 7-(2-aminoethyl)-4-hydroxybenzothiazol-2(3H)-one analogues” (J Med Chem, 1998).

Calls of active or inactive are those of the source. The calls are words filed in the database; no cut-off is given here. Bounds are passed on as bounds.

In experiment [1] the target is Adrenergic receptor alpha-1 (Homo sapiens) (UniProt P35348+P25100+P35368). Briefly: Tested in vitro for binding activity to Alpha-1 adrenergic receptor in field stimulated rabbit ear artery (REA). The conditions noted are these: Oryctolagus cuniculus; target entry is the homologue from another species.
In experiment [2] the target is Beta-2 adrenergic receptor (Cavia porcellus) (UniProt Q8K4Z4). Nature of the experiment: Tested in vitro for binding activity to Beta-2 adrenergic receptor in guinea pig trachea (GPT). It counts as tissue-based.
Sequence of Beta-2 adrenergic receptor (Cavia porcellus) (Q8K4Z4 whole entry, looked up): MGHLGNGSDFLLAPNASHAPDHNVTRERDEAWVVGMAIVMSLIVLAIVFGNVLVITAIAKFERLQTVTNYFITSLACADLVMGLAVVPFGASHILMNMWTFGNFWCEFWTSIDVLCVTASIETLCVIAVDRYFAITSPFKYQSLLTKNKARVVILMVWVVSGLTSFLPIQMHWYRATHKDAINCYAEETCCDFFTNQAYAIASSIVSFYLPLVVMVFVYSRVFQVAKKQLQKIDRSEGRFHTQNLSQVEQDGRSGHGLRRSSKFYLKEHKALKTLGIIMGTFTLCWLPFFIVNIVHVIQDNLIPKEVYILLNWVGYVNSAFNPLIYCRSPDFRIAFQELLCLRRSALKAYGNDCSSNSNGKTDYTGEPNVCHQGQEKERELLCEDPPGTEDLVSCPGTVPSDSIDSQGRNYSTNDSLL
For experiment [3], the target named is D(2) dopamine receptor (Bos taurus) (UniProt P20288). Briefly: Tested in vitro for binding activity to Dopamine receptor D2 in bovine pituitary membranes (D2-LB). It counts as cell membranes.
Sequence of D(2) dopamine receptor (Bos taurus) (P20288 whole entry): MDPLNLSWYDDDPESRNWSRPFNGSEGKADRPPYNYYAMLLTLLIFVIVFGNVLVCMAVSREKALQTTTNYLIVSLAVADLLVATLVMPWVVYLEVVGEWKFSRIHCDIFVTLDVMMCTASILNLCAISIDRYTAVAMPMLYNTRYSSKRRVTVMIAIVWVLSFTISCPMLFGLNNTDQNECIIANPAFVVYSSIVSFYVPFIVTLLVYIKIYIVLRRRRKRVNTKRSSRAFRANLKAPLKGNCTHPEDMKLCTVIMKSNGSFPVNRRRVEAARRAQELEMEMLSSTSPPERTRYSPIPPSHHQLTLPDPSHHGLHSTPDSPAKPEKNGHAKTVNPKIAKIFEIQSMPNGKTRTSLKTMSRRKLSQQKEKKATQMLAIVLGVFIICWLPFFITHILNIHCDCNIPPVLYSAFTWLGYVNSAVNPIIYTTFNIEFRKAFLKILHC
Experiment [4] deals with D(2) dopamine receptor (Homo sapiens) (UniProt P14416). Briefly: Tested in vitro for binding activity to Dopamine receptor D2 in field stimulated rabbit ear artery (D2-REA); f denotes 'Data compromised by high […] agonist activity'. The conditions noted are these: Oryctolagus cuniculus; target entry is the homologue from another species.
Sequence of D(2) dopamine receptor (Homo sapiens) (P14416 whole entry): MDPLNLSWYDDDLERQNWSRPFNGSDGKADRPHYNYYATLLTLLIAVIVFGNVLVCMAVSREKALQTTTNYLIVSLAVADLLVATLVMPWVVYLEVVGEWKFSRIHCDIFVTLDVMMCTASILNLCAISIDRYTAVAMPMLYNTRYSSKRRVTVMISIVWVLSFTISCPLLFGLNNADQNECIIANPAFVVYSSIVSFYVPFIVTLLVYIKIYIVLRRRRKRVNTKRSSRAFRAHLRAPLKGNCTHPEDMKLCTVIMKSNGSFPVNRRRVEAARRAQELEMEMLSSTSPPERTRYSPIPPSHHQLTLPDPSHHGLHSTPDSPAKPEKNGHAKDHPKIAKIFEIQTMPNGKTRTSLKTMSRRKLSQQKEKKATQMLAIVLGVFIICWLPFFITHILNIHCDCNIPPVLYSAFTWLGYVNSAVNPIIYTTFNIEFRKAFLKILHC
For experiment [5] the target is unchanged. Briefly: Tested in vitro for binding activity to Dopamine receptor D2 in field stimulated rabbit ear artery (D2-REA). The conditions noted are these: Oryctolagus cuniculus; target entry is the homologue from another species.

On to `Oc1nc2c(O)ccc(CCNCCCCCCOCCCCc3ccccc3)c2s1`, for which, in experiment [1], the p[A]50 turned out to be 6.85. The compound further registered a p[A]50 in experiment [2] of 7.33. In experiment [3], the pKH was 9.33 and the pKL was 7.11. The “p[A]50” value in experiment [4] is “inactive”.

For the compound `Oc1nc2c(O)ccc(CCNCCCCCCOCCc3ccccc3)c2s1`, the p[A]50 in experiment [1] was found to be 7.56; in experiment [2] it was 7.89. In experiment [3], this compound returned a pKH of 9.01. Besides, the pKL in experiment [3] worked out at 6.93. The “p[A]50” value in experiment [4] is “inactive”.

Turning to `Oc1nc2c(O)ccc(CCNCCCCCCNCCc3ccccc3)c2s1`, the figures for the p[A]50 in experiment [1] and in experiment [2] were 6.81 and 7.19, respectively. The pKH in experiment [3] came out at 8.99. This compound returned a pKL in experiment [3] of 6.44. Further, the “p[A]50” value in experiment [4] is “inactive”.

In the case of `O=c1[nH]c2c(O)ccc(CCNCCS(=O)(=O)CCCOCCc3ccccc3)c2s1`, the p[A]50 in experiment [1] amounted to 6.08; in experiment [2] it was 7.95; in experiment [5] it was 8.94. Besides, the pKH in experiment [3] came to 8.61. In addition, the pKL in experiment [3] amounted to 6.48.

In the case of `CCCN(CCC)CCc1ccc(O)c2nc(O)sc12`, the p[A]50 in experiment [1] is 6.03; in experiment [2], below 5; in experiment [5], 9.6. The pKH in experiment [3] is 9.34. In addition, the pKL in experiment [3] stood at 6.85.

`OCc1cc(C(O)CNCCCCCCOCCCCc2ccccc2)ccc1O` (configuration not stated): the values for the p[A]50 in experiment [1] and in experiment [2] were 5.49 and 7.52, respectively.
